According to patent US11479528B2, “Heat shock protein 90 inhibitors” (TAIPEI MEDICAL UNIVERSITY, priority 2017, dated 2022):
Where two headings read alike, the source gives them in different places.

Assays:
lung A549 = assay: Sulforhodamine B (SRB) assay, lung A549; assay type: cell-based, human
Experimental: Human cancer cells were purchased from the American Type Culture Collection (Manassas, Va., USA).
Cells were seeded in 96-well plates in medium with 5% fetal bovine serum. […] Unbound sulforhodamine B was washed out by 1% acetic acid and sulforhodamine B-bound cells were solubilized with 10 mmol/L Trizma base. […] Using the following absorbance measurements, such as time zero (T0), control growth (C), and cell growth in the presence of the drug (Tx), the percentage growth was calculated at each of the compound concentrations levels. Percentage growth inhibition was calculated as […].

prostate PC3 = assay: Sulforhodamine B (SRB) assay, prostate PC3; assay type: cell-based; details: Homo sapiens, Table 1, 48 h
Experimental: (§1) Human cancer cells were purchased from the American Type Culture Collection (Manassas, Va., USA). These cell lines were cultured in RPMI 1640 medium or DMEM supplemented with 10% FBS (v/v) and pencillin (100 U/mL)/streptomycin (100 ug/mL)/amphotericin B (0.25 ug/mL). Cultures were maintained at 37° C. in a humidified atmosphere of 5% CO2/95% air.
(§2) Cells were seeded in 96-well plates in medium with 5% fetal bovine serum. After 24 h, cells were fixed with 10% trichloroacetic acid to represent cell population at the time of drug addition (T0). After additional incubation of DMSO or drugs for 48 h, cells were fixed with 10% trichloroacetic acid and sulforhodamine B at 0.4% (w/v) in 1% acetic acid was added to stain cells. Unbound sulforhodamine B was washed out by 1% acetic acid and sulforhodamine B-bound cells were solubilized with 10 mmol/L Trizma base. The absorbance was read at a wavelength of 515 nm. Using the following absorbance measurements, such as time zero (T0), control growth (C), and cell growth in the presence of the drug (Tx), the percentage growth was calculated at each of the compound concentrations levels. Percentage growth inhibition was calculated as […].

colorectal HCT116 = assay: Sulforhodamine B (SRB) assay, colorectal HCT116; assay type: cell-based; details: Homo sapiens, HCT-116, SRB
Experimental: as §1, §2

[1] = Homo sapiens, A549, 48 h, read-out: GI50 Lung A549
[2] = Homo sapiens, A549, Table 1, SRB, 48 h, read-out: GI50 Lung A549
[3] = Table 1, 48 h, read-out: GI50 Colorectal HCT116

Row | Compound | GI50 (lung A549; [1]) | GI50 (lung A549; [2]) | GI50 (prostate PC3) | other results
1 | CCCN(C(=O)c1cc(C(C)C)c(O)cc1O)c1ccc2ccn(C)c2c1 [Compound 21e, 2,4-dihydroxy-5-isopropyl-N-(1-methyl-1H-indol-6-yl)-N-propylbenzamide] | 1620 ± 120 nM | – | – | –
2 | CC(C)c1cc(C(=O)N(c2ccc3ccn(C)c3c2)C(C)C)c(O)cc1O [Compound 21f, 2,4-dihydroxy-N,5-diisopropyl-N-(1-methyl-1H-indol-6-yl)benzamide] | 840 ± 40 nM | – | – | –
3 | CCN(C(=O)c1cc(C(C)C)c(O)cc1O)c1ccc2ccn(C)c2c1 [Compound 21d, N-ethyl-2,4-dihydroxy-5-isopropyl-N-(1-methyl-1H-indol-6-yl)benzamide] | 90 ± 10 nM | – | – | –
4 | CCN(C(=O)c1cc(C(C)C)c(O)cc1O)c1ccc2ncccc2c1 [Compound 30c, N-ethyl-2,4-dihydroxy-5-isopropyl-N-(quinolin-6-yl)benzamide] | – | 510 ± 90 nM | 0.46 ± 0.13 µM | –
5 | CC(C)c1cc(C(=O)N(C)c2ccc3c(c2)CCN3)c(O)cc1O [Compound 23b, 2,4-dihydroxy-N-(indolin-5-yl)-5-isopropyl-N-methylbenzamide] | – | 2820 ± 30 nM | – | GI50 (colorectal HCT116; [3]): 5.53 ± 0.38 µM
6 | CC(C)c1cc(C(=O)N(C)c2cnc3c(cnn3C)c2)c(O)cc1O [Compound 26c, 2,4-dihydroxy-5-isopropyl-N-methyl-N-(1-methyl-1H-pyrazolo[3,4-b]pyridin-5-yl)benzamide] | – | 700 ± 40 nM | – | GI50 (colorectal HCT116; [3]): 1.15 ± 0.22 µM
7 | CC(C)c1cc(C(=O)Nc2cnc3c(cnn3C)c2)c(O)cc1O [Compound 26b, 2,4-dihydroxy-5-isopropyl-N-(1-methyl-1H-pyrazolo[3,4-b]pyridin-5-yl)benzamide] | – | > 10000 nM | – | GI50 (colorectal HCT116; [3]): > 10 µM
8 | CCN(C(=O)c1cc(C(C)C)c(O)cc1O)c1cccc2cccnc12 [Compound 31c, N-ethyl-2,4-dihydroxy-5-isopropyl-N-(quinolin-8-yl)benzamide] | – | 3700 ± 170 nM | 2.4 ± 0.27 µM | –
9 | CC(C)c1cc(C(=O)N(C)c2ccc3ccn(C)c3c2)c(O)cc1O [Compound 21c, 2,4-dihydroxy-5-isopropyl-N-methyl-N-(1-methyl-1H-indol-6-yl)benzamide] | 100 ± 20 nM | – | – | –
10 | CCCN(C(=O)c1cc(C(C)C)c(O)cc1O)c1cccc2ccn(C)c12 [Compound 22d, 2,4-dihydroxy-5-isopropyl-N-(1-methyl-1H-indol-7-yl)-N-propylbenzamide] | > 10000 nM | – | – | –
11 | CCN(C(=O)c1cc(C(C)C)c(O)cc1O)c1cccnc1C [Compound 34a, N-ethyl-2,4-dihydroxy-5-isopropyl-N-(2-methylpyridin-3-yl)benzamide] | – | – | – | GI50 (lung A549; Table 1, SRB, 48 h, read-out: GI50 Lung A549): > 10000 nM
12 | CCCN(C(=O)c1cc(C(C)C)c(O)cc1O)c1cnc2c(ccn2C)c1 [Compound 24e, 2,4-dihydroxy-5-isopropyl-N-(1-methyl-1H-pyrrolo[2,3-b]pyridin-5-yl)-N-propylbenzamide] | – | 2100 ± 170 nM | – | GI50 (colorectal HCT116; [3]): 3.76 ± 0.23 µM
13 | CC(C)c1cc(C(=O)Nc2ccc3ccn(C)c3c2)c(O)cc1O [Compound 21b, 2,4-dihydroxy-5-isopropyl-N-(1-methyl-1H-indol-6-yl)benzamide] | > 10000 nM | – | – | –
14 | CCN(C(=O)c1cc(C(C)C)c(O)cc1O)c1cnc2ccccc2c1 [Compound 28c, N-ethyl-2,4-dihydroxy-5-isopropyl-N-(quinolin-3-yl)benzamide] | – | 280 ± 50 nM | – | –
15 | CC(C)c1cc(C(=O)N(C)c2ccc3ncccc3c2)c(O)cc1O [Compound 30b, 2,4-dihydroxy-5-isopropyl-N-methyl-N-(quinolin-6-yl)benzamide] | – | > 10000 nM | > 10 µM | –
16 | CCN(C(=O)c1cc(C(C)C)c(O)cc1O)c1cnc2c(ccn2C)c1 [Compound 24d, N-ethyl-2,4-dihydroxy-5-isopropyl-N-(1-methyl-1H-pyrrolo[2,3-b]pyridin-5-yl)benzamide] | – | 230 ± 30 nM | – | GI50 (colorectal HCT116; [3]): 0.44 ± 0.19 µM
17 | CC(C)c1cc(C(=O)Nc2ccc3cc[nH]c3c2)c(O)cc1O [Compound 21a, 2,4-dihydroxy-N-(1H-indol-6-yl)-5-isopropylbenzamide] | 300 ± 30 nM | – | – | –
18 | CC(C)c1cc(C(=O)Nc2ccc3[nH]ncc3c2)c(O)cc1O [Compound 25a, 2,4-dihydroxy-N-(1H-indazol-5-yl)-5-isopropylbenzamide] | – | > 10000 nM | > 10 µM | –

Row | Compound | GI50 (lung A549; [1]) | GI50 (lung A549; [2]) | GI50 (prostate PC3) | other results
19 | CC(C)c1cc(C(=O)N(c2cnc3c(cnn3C)c2)C(C)C)c(O)cc1O [Compound 26f, 2,4-dihydroxy-N, 5-diisopropyl-N-(1-methyl-1H-pyrazolo[3,4-b]pyridin-5-yl)benzamide] | – | 3640 ± 50 nM | – | GI50 (colorectal HCT116; [3]): 6.86 ± 0.48 µM
20 | CC(C)c1cc(C(=O)N(c2cccc3ccn(C)c23)C(C)C)c(O)cc1O [Compound 22e, 2,4-dihydroxy-N,5-diisopropyl-N-(1-methyl-1H-indol-7-yl)benzamide] | > 10000 nM | – | – | –
21 | CC(C)c1cc(C(=O)N(C)c2ccc3c(cnn3C)c2)c(O)cc1O [Compound 25b, 2,4-dihydroxy-5-isopropyl-N-methyl-N-(1-methyl-1H-indazol-5-yl)benzamide] | – | 110 ± 10 nM | 0.1 ± 0.01 µM | –
22 | CCN(C(=O)c1cc(C(C)C)c(O)cc1O)c1cnc2c(cnn2C)c1 [Compound 26d, N-ethyl-2,4-dihydroxy-5-isopropyl-N-(1-methyl-1H-pyrazolo[3,4-b]pyridin-5-yl)benzamide] | – | 380 ± 20 nM | – | GI50 (colorectal HCT116; [3]): 0.71 ± 0.06 µM
23 | CC(C)c1cc(C(=O)Nc2cccc3ccn(C)c23)c(O)cc1O [Compound 22a, 2,4-dihydroxy-5-isopropyl-N-(1-methyl-1H-indol-7-yl)benzamide] | > 10000 nM | – | – | –
24 | CC(C)c1cc(C(=O)Nc2cccc3cccnc23)c(O)cc1O [Compound 31a, 2,4-dihydroxy-5-isopropyl-N-(quinolin-8-yl)benzamide] | – | > 10000 nM | > 10 µM | –
25 | CC(C)c1cc(C(=O)Nc2ccc3ncccc3c2)c(O)cc1O [Compound 30a, 2,4-dihydroxy-5-isopropyl-N-(quinolin-6-yl)benzamide] | – | > 10000 nM | > 10 µM | –
26 | C=CCNC1=C2C[C@@H](C)C[C@H](OC)[C@H](O)[C@@H](C)/C=C(\C)[C@H](OC(N)=O)[C@@H](OC)/C=C\C=C(/C)C(=O)NC(=CC1=O)C2=O [Compound 17-AAG, 17-allylamino-17-desmethoxygeldanamycin, reference compound] | – | – | – | GI50 (lung A549; Homo sapiens, A549, Table 2, SRB, read-out: A549 GI50): 80 ± 10 nM; GI50 (colorectal HCT116; Table 2, read-out: HCT116 GI50): 0.34 ± 0.06 µM
27 | Cc1cc(NC(=O)c2cc(C(C)C)c(O)cc2O)c2ccccc2n1 [Compound 32a, 2,4-dihydroxy-5-isopropyl-N-(2-methylquinolin-4-yl)benzamide] | – | > 10000 nM | > 10 µM | –
28 | CCN(C(=O)c1cc(C(C)C)c(O)cc1O)c1cccc2ccn(C)c12 [Compound 22c, N-ethyl-2,4-dihydroxy-5-isopropyl-N-(1-methyl-1H-indol-7-yl)benzamide] | > 10000 nM | – | – | –
29 | CC(C)c1cc(C(=O)N(C)c2cnc3c(ccn3C)c2)c(O)cc1O [Compound 24c, 2,4-dihydroxy-5-isopropyl-N-methyl-N-(1-methyl-1H-pyrrolo[2,3-b]pyridin-5-yl)benzamide] | – | 270 ± 30 nM | – | GI50 (colorectal HCT116; [3]): 0.71 ± 0.08 µM
30 | CCN(C(=O)c1cc(C(C)C)c(O)cc1O)c1cccnc1OCc1ccccc1 [Compound 34b, N-(2-(benzyloxy)pyridin-3-yl)-N-ethyl-2,4-dihydroxy-5-isopropylbenzamide] | – | 210 ± 10 nM | – | –
31 | CC(C)c1cc(C(=O)N(C)c2cnc3ccccc3c2)c(O)cc1O [Compound 28b, 2,4-dihydroxy-5-isopropyl-N-methyl-N-(quinolin-3-yl)benzamide] | – | > 10000 nM | > 10 µM | –
32 | CC(C)c1cc(C(=O)N(c2cnc3c(ccn3C)c2)C(C)C)c(O)cc1O [Compound 24f, 2,4-dihydroxy-N, 5-diisopropyl-N-(1-methyl-1H-pyrrolo[2,3-b]pyridin-5-yl)benzamide] | – | 2060 ± 120 nM | – | GI50 (colorectal HCT116; [3]): 3.14 ± 0.87 µM
33 | CCCN(C(=O)c1cc(C(C)C)c(O)cc1O)c1cnc2c(cnn2C)c1 [Compound 26e, 2,4-dihydroxy-5-isopropyl-N-(1-methyl-1H-pyrazolo[3,4-b]pyridin-5-yl)-N-propylbenzamide] | – | 4210 ± 220 nM | – | GI50 (colorectal HCT116; [3]): 8.29 ± 0.29 µM
34 | CC(C)c1cc(C(=O)Nc2cccc3ncccc23)c(O)cc1O [Compound 29a, 2,4-dihydroxy-5-isopropyl-N-(quinolin-5-yl)benzamide] | – | > 10000 nM | > 10 µM | –
35 | CC(C)c1cc(C(=O)Nc2cnc3ccccc3c2)c(O)cc1O [Compound 28a, 2,4-dihydroxy-5-isopropyl-N-(quinolin-3-yl)benzamide] | – | > 10000 nM | > 10 µM | –
36 | CC(C)c1cc(C(=O)N(C)c2cccc3ccn(C)c23)c(O)cc1O [Compound 22b, 2,4-dihydroxy-5-isopropyl-N-methyl-N-(1-methyl-1H-indol-7-yl)benzamide] | > 10000 nM | – | – | –
